One assay deals with Prescottella equi. Description: Antimicrobial activity against Rhodococcus equi ATCC 6939. The class given is functional. The settings on record: for MIC50 / MIC90: Rhodococcus (subgen. Prescottella) equi, ATCC 6939.
The subject of assay [1] is Enterococcus faecalis. In words: Antimicrobial activity against vancomycin-resistant Enterococcus faecalis ATCC 51299. The class given is functional. The settings on record: for MIC50 / MIC90: Enterococcus faecalis, ATCC 51299.
Assay [2] concerns Staphylococcus aureus. Description: Antimicrobial activity against methicillin-resistant Staphylococcus aureus ATCC 43300. Type of assay: functional. The settings on record: for MIC50 / MIC90: Staphylococcus aureus, ATCC 43300.
For assay [3], the system named is Enterococcus faecalis. Description: Antimicrobial activity against vancomycin-susceptible Enterococcus faecalis ATCC 29212. Type of assay: functional. The following applies: for MIC50 / MIC90: Enterococcus faecalis, ATCC 29212.
A further assay relates to Streptococcus pyogenes. Description: Antimicrobial activity against Streptococcus pyogenes ATCC 19615. Type of assay: functional. The settings on record: for MIC50 / MIC90: Streptococcus pyogenes, ATCC 19615.
Assay [4] relates to Staphylococcus aureus. In words: Antimicrobial activity against methicillin-susceptible Staphylococcus aureus ATCC 29213. Type of assay: functional. The following applies: for MIC50 / MIC90: Staphylococcus aureus, ATCC 29213.
For the next assay, the system named is Erythrocyte. Description: Effect on hemolytic activity in human RBC above 50 mg/liter. Type of assay: functional, cell-based.

Converted amounts (≈) assume the structure as drawn. The source made the active and inactive calls. No cut-off for these calls is given here.

`CCCCCCCCCCCCCCCC(=O)N[C@@H](CCCCN)C(=O)N[C@@H](CCCCN)C(=O)O`: the MBC50 came out at 4 µg/mL (≈ 7.8 µM) in the assay on Prescottella equi, 4 µg/mL (≈ 7.8 µM) with Enterococcus faecalis [3], 2 µg/mL (≈ 3.9 µM) with Streptococcus pyogenes and 8 µg/mL (≈ 15.6 µM) in the assay on Staphylococcus aureus [4]. Further, the MBC90 against Prescottella equi turned out to be 16 µg/mL (≈ 31.2 µM); against Enterococcus faecalis [1] it was 16 µg/mL (≈ 31.2 µM); against Enterococcus faecalis [3], 8 µg/mL (≈ 15.6 µM); against Streptococcus pyogenes, 4 µg/mL (≈ 7.8 µM); with Staphylococcus aureus [4], 16 µg/mL (≈ 31.2 µM). Further, the MIC50 was found to be 2 µg/mL (≈ 3.9 µM) in the assay on Prescottella equi; 2 µg/mL (≈ 3.9 µM) with Enterococcus faecalis [1]; 4 µg/mL (≈ 7.8 µM) in the assay with Staphylococcus aureus [2]; 2 µg/mL (≈ 3.9 µM) against Enterococcus faecalis [3]; 1 µg/mL (≈ 1.95 µM) against Streptococcus pyogenes; 4 µg/mL (≈ 7.8 µM) in the assay with Staphylococcus aureus [4]. In addition, the MIC90 is 16 µg/mL (≈ 31.2 µM) with Prescottella equi; 4 µg/mL (≈ 7.8 µM) against Enterococcus faecalis [1]; 8 µg/mL (≈ 15.6 µM) in the assay with Staphylococcus aureus [2]; 4 µg/mL (≈ 7.8 µM) in the assay on Enterococcus faecalis [3]; 2 µg/mL (≈ 3.9 µM) with Streptococcus pyogenes; 8 µg/mL (≈ 15.6 µM) in the assay with Staphylococcus aureus [4]. In addition, in the assay on Erythrocyte, the result was Active.
On to `CC(=O)NC[C@H]1CN(c2ccc(N3CCOCC3)c(F)c2)C(=O)O1` [LINEZOLID], for which the MBC50 against Prescottella equi came to 8 µg/mL (≈ 23.7 µM); in the assay on Enterococcus faecalis [1], 4 µg/mL (≈ 11.9 µM); in the assay on Staphylococcus aureus [2], 0.5 µg/mL (≈ 1.48 µM); against Enterococcus faecalis [3], 2 µg/mL (≈ 5.93 µM); in the assay on Streptococcus pyogenes it was 1 µg/mL (≈ 2.96 µM); in the assay on Staphylococcus aureus [4], 1 µg/mL (≈ 2.96 µM). Also, the MBC90 amounted to 16 µg/mL (≈ 47.4 µM) against Prescottella equi, 4 µg/mL (≈ 11.9 µM) in the assay on Enterococcus faecalis [3], 2 µg/mL (≈ 5.93 µM) in the assay on Streptococcus pyogenes and 2 µg/mL (≈ 5.93 µM) against Staphylococcus aureus [4]. The MIC50 against Prescottella equi amounted to 0.5 µg/mL (≈ 1.48 µM); against Enterococcus faecalis [1], 1 µg/mL (≈ 2.96 µM); in the assay on Staphylococcus aureus [2], 0.5 µg/mL (≈ 1.48 µM); in the assay on Enterococcus faecalis [3] it was 1 µg/mL (≈ 2.96 µM); against Streptococcus pyogenes it was 0.5 µg/mL (≈ 1.48 µM); with Staphylococcus aureus [4], 0.5 µg/mL (≈ 1.48 µM). In addition, the MIC90 against Prescottella equi worked out at 1 µg/mL (≈ 2.96 µM); with Enterococcus faecalis [1], 2 µg/mL (≈ 5.93 µM); with Staphylococcus aureus [2], 1 µg/mL (≈ 2.96 µM); with Enterococcus faecalis [3] it was 2 µg/mL (≈ 5.93 µM); against Streptococcus pyogenes, 1 µg/mL (≈ 2.96 µM); against Staphylococcus aureus [4], 2 µg/mL (≈ 5.93 µM).
For `C[C@@H](O)[C@H]1C(=O)N2C(C(=O)O)=C(SCCNC=N)C[C@H]12` [IMIPENEM ANHYDROUS], the MBC50 against Prescottella equi was 8 µg/mL (≈ 26.7 µM); in the assay on Enterococcus faecalis [1], 64 µg/mL (≈ 214 µM); with Staphylococcus aureus [2], 64 µg/mL (≈ 214 µM); with Enterococcus faecalis [3], 16 µg/mL (≈ 53.4 µM); against Streptococcus pyogenes, 1 µg/mL (≈ 3.34 µM); in the assay with Staphylococcus aureus [4] it was 4 µg/mL (≈ 13.4 µM). Besides, the MBC90 came out at 16 µg/mL (≈ 53.4 µM) with Prescottella equi; 128 µg/mL (≈ 428 µM) with Enterococcus faecalis [1]; 256 µg/mL (≈ 855 µM) in the assay on Staphylococcus aureus [2]; 64 µg/mL (≈ 214 µM) against Enterococcus faecalis [3]; 4 µg/mL (≈ 13.4 µM) with Streptococcus pyogenes; 8 µg/mL (≈ 26.7 µM) against Staphylococcus aureus [4]. The MIC50 with Prescottella equi is 0.25 µg/mL (≈ 0.835 µM); in the assay with Enterococcus faecalis [1], 16 µg/mL (≈ 53.4 µM); in the assay on Staphylococcus aureus [2], 16 µg/mL (≈ 53.4 µM); with Enterococcus faecalis [3], 4 µg/mL (≈ 13.4 µM); against Streptococcus pyogenes, 0.5 µg/mL (≈ 1.67 µM); against Staphylococcus aureus [4], 0.5 µg/mL (≈ 1.67 µM). Besides, the MIC90 in the assay with Prescottella equi worked out at 1 µg/mL (≈ 3.34 µM); with Enterococcus faecalis [1], 64 µg/mL (≈ 214 µM); with Staphylococcus aureus [2], 128 µg/mL (≈ 428 µM); against Enterococcus faecalis [3], 16 µg/mL (≈ 53.4 µM); with Streptococcus pyogenes, 1 µg/mL (≈ 3.34 µM); in the assay with Staphylococcus aureus [4], 2 µg/mL (≈ 6.68 µM).
On to `CN[C@H](CC(C)C)C(=O)N[C@H]1C(=O)N[C@@H](CC(N)=O)C(=O)N[C@H]2C(=O)N[C@H]3C(=O)N[C@H](C(=O)N[C@H](C(=O)O)c4cc(O)cc(O)c4-c4cc3ccc4O)[C@H](O)c3ccc(c(Cl)c3)Oc3cc2cc(c3O[C@@H]2O[C@H](CO)[C@@H](O)[C@H](O)[C@H]2O[C@H]2C[C@](C)(N)[C@H](O)[C@H](C)O2)Oc2ccc(cc2Cl)[C@H]1O` [VANCOMYCIN], for which the MBC50 was determined as 8 µg/mL (≈ 5.52 µM) in the assay with Prescottella equi; 64 µg/mL (≈ 44.2 µM) against Enterococcus faecalis [1]; 0.5 µg/mL (≈ 0.345 µM) against Staphylococcus aureus [2]; 2 µg/mL (≈ 1.38 µM) with Enterococcus faecalis [3]; 1 µg/mL (≈ 0.69 µM) against Streptococcus pyogenes; 0.5 µg/mL (≈ 0.345 µM) against Staphylococcus aureus [4]. Also, the MBC90 was found to be 16 µg/mL (≈ 11 µM) in the assay with Prescottella equi; 256 µg/mL (≈ 177 µM) in the assay on Enterococcus faecalis [1]; 2 µg/mL (≈ 1.38 µM) in the assay with Staphylococcus aureus [2]; 4 µg/mL (≈ 2.76 µM) in the assay with Enterococcus faecalis [3]; 2 µg/mL (≈ 1.38 µM) with Streptococcus pyogenes; 2 µg/mL (≈ 1.38 µM) against Staphylococcus aureus [4]. The MIC50 against Prescottella equi came out at 0.5 µg/mL (≈ 0.345 µM); with Enterococcus faecalis [1] it was 32 µg/mL (≈ 22.1 µM); with Staphylococcus aureus [2], 0.5 µg/mL (≈ 0.345 µM); with Enterococcus faecalis [3], 1 µg/mL (≈ 0.69 µM); against Streptococcus pyogenes it was 0.5 µg/mL (≈ 0.345 µM); against Staphylococcus aureus [4], 0.5 µg/mL (≈ 0.345 µM). Also, the MIC90 in the assay with Prescottella equi was determined as 1 µg/mL (≈ 0.69 µM); in the assay with Enterococcus faecalis [1], 64 µg/mL (≈ 44.2 µM); against Staphylococcus aureus [2] it was 2 µg/mL (≈ 1.38 µM); against Enterococcus faecalis [3] it was 2 µg/mL (≈ 1.38 µM); against Streptococcus pyogenes, 1 µg/mL (≈ 0.69 µM); with Staphylococcus aureus [4] it was 1 µg/mL (≈ 0.69 µM).

One may read the MIC50 as an inhibitory concentration at the 50% level, which refers to growth in some studies and to a panel of isolates in others. Low values mean greater potency, high ones weaker potency. By MIC90 is commonly meant an inhibitory concentration at the 90% level, which refers to growth in some studies and to a panel of isolates in others. A high value points to weaker potency.

These data come from ChEMBL document CHEMBL1142149, “In vitro activities of the lipopeptides palmitoyl (Pal)-Lys-Lys-NH(2) and Pal-Lys-Lys alone and in combination with antimicrobial agents against multiresistant gram-positive cocci” (2007).
